{"source": "paper PMC10583261", "about": "(CPT: Pharmacometrics & Systems Pharmacology, 2023)", "key": {"[1]": {"format": "in vivo, human"}, "[2]": {"conditions": "ref data on file, cited from earlier work"}, "[3]": {"conditions": "weak-base compound; ref data on file; cited from earlier work"}, "[4]": {"conditions": "final population PK model, healthy subjects"}}, "note": "Values joined by “and” are separate entries in the source; they are usually repeats but may differ in a detail not shown here. Equal values may be shown once. Read-outs that look alike come from different tables or passages of the source.", "data": [{"smiles": "N#Cc1ccc(N2CCN(Cc3ccc(COc4cccc5c4CN([C@H]4CCC(=O)NC4=O)C5=O)cc3)CC2)c(F)c1", "note": "[mezigdomide]", "values": [{"measurement": "decrease in ka with high-fat meal", "setting": "[1]; fed vs fasted, model-estimated", "value": "~ 30%"}, {"measurement": "increase in Tlag with high-fat meal", "setting": "[1]; fed vs fasted, model-estimated", "value": "~ 0.85 h"}, {"measurement": "increase of relative oral bioavailability F with high-fat meal", "setting": "[1]; fed vs fasted, model-estimated", "value": "~ 30%"}, {"measurement": "interindividual variability (IIV) of central volume of distribution V1", "setting": "[1]; final population PK model", "value": "63% and 63.4%"}, {"measurement": "interindividual variability (IIV) of clearance", "setting": "[1]; final population PK model", "value": "40% and 39.9% and ~ 40%"}, {"measurement": "interindividual variability (IIV) of intercompartmental clearance", "setting": "[1]; final population PK model", "value": 26, "unit": "%"}, {"measurement": "interindividual variability (IIV) of peripheral volume of distribution", "setting": "[1]; final population PK model", "value": 26, "unit": "%"}, {"measurement": "interoccasion variability (IOV) of absorption rate constant ka", "setting": "[1]; final population PK model", "value": 65, "unit": "%"}, {"measurement": "V1pop, distribution volume of the central compartment", "setting": "[1]; [4]", "value": 440, "unit": "L"}, {"measurement": "V2pop, distribution volume of the peripheral compartment", "setting": "[1]; [4]", "value": 243, "unit": "L"}, {"measurement": "dose-exposure relationship", "setting": "[1]; healthy subjects, 0.4–3.2 mg", "value": "linear"}, {"measurement": "absorption rate constant", "setting": "[1]; population PK parameter, healthy subjects (abstract)", "value": 1.18, "unit": "h⁻¹"}, {"measurement": "decrease in relative oral bioavailability F with PPI co-administration", "setting": "[1]; rabeprazole vs no PPI, model-estimated", "value": "~ 64%"}, {"measurement": "Solubility", "setting": "[2]; pH 1", "value": 133, "unit": "µg/mL"}, {"measurement": "Solubility", "setting": "[2]; pH 5", "value": 1, "unit": "µg/mL"}, {"measurement": "decrease of solubility from pH 1 to pH 5", "setting": "[2]", "value": "~ 100 fold"}, {"measurement": "dissociation constant", "setting": "[3]", "value": 6}]}]}
